Measured values from patent US9999623B2, “Use of substituted 2,3-dihydroimidazo[1,2-c]quinazolines for treating lymphomas” (BAYER PHARMA AKTIENGESELLSCHAFT, priority 2013, dated 2018).
Structures can show the parent of a compound that is named as a salt.

What was measured:
[1] = tested on: signaling pathways in OCI-Ly3 and HBL-1 cells; assay: Western blot modulation of intracellular signaling pathways; format: cell-based, human; settings: 24 h post treatment
Description: Modulation of intracellular pathways were assessed by Western blots at 24 h post treatment with indicated compounds either as single agent or in combination. Antibodies used in this study are AKT (#4685, Cell Signaling), p-AKT (04060, Cell Signaling), ERK (#4695, Cell Signaling), p-ERK (#4376, Cell Signaling), BTK (#3533, Cell Signaling), p-BTK (05082, Cell Signaling), IκBα (#4812, Cell Signaling), p-IκBα (#AF4809, R&D), p-IKKα/β (02078, Cell Signaling), IKKβ (02370, Cell Signaling).

DLBCL cell lines = assay: 72-h CellTiter-Glo anti-proliferative assay; format: cell-based, human; settings: for anti-proliferative activity profile across DLBCL cell lines: panel of 8 DLBCL cell lines; for IC50: Homo sapiens
Description: Briefly, cells were plated at 250-2000 cells/well of 384-well plates (based on cell lines) in 20 μL of growth medium. For each cell line assayed, cells were plated into a separate plate for determination of luminescence at the t=0 hours and t=72 hour time points. […] Dose plates for t=72 hour time points were treated with compounds diluted into growth medium in a final volume of 30 μL. Cells were then incubated for 72 hours at 37° C. Luminescence values for the t=72 hour samples were determined by adding 30 μL of Promega CellTiter-Glo solution, placing the cells on a shaker for 10 minutes at room temperature, and then reading the luminescence using a Victor luminometer. For data processing, t=0 values are subtracted from those determined for the t=72 hour time points, for both the treated and untreated samples. Percent differences in luminescence between drug treated and controls are used to determine percent inhibition of growth.

follicular NHL [2] = assay: Initial clinical efficacy in NHL patients (phase I dose-escalation), follicular NHL; format: in vivo, human; settings: patients with PR/patients; PR at end of cycle 2 at 0.8 mg/kg, one case end of cycle 4 at 0.6 mg/kg
Description: A phase I dose-escalation study (Patnaik et al, ASH 2012) established the maximum tolerated dose of COMPOUND OF FORMULA I (0.8 mg/kg) and reported promising activity (6/6 PR) in follicular lymphoma. In the present study we further investigated the activity and safety of COMPOUND OF FORMULA I in patients with indolent or aggressive lymphoma subtypes that have progressed after standard therapy.

DLBCL [3] = assay: Initial clinical efficacy in NHL patients (phase I dose-escalation), DLBCL; format: in vivo, human; settings: DLBCL patient with SD
Half-life in mice = settings: mouse, in vivo, iv
[4] = tested on: indolent or aggressive lymphoma; assay: Phase II study, single agent, response by lymphoma subtype; format: in vivo, human; settings: for Best response CR/CRu, number of patients / Best response PD, number of patients / Best response PR, number of patients / Best response SD, number of patients: staged patients; for complete RR / overall response rate (RR): interim analysis
Description: In this Phase II study, patients with histologically confirmed indolent or aggressive lymphoma relapsed or refractory to ≥2 prior lines of treatment were eligible. Patients received COMPOUND OF FORMULA I at a dose of 0.8 mg/kg as a 1 hour infusion on days 1, 8 and 15 of a 28-day cycle. Patients continued on therapy until disease progression or unacceptable toxicity. Responses were assessed every two cycles according to the response criteria for lymphoma (Cheson et al, JCO 17:1244, 1999) or the guidelines for diagnosis and treatment of chronic lymphocytic leukemia (CLL; Hallek et al., Blood 111:5446-56, 2008).
As of May 31, 2013, a total of 61 lymphoma patients (27 indolent and 34 aggressive) were enrolled and 56 started study treatment. Patients were similarly distributed among indolent and aggressive cohorts with respect to gender (52% female), median age (68 yr, range 22-90) and ethnicity (76% Caucasian) and were heavily pretreated (median number of prior therapies: 3; prior Rituximab: 84%; prior ASCT: 20%). Other characteristics included advanced stage III-IV in 85% and B symptoms in 17%. The following entities were represented: follicular (FL; n=13); CLL (n=11); marginal zone (MZL; n=3; none re-staged); diffuse large B-cell (DLBCL; n=17); mantle cell (MCL; n=7); transformed (n=5); and peripheral T-cell (PTCL; n=4). At the time of analysis patients had received between 1 and 5 cycles of treatment. Objective responses were seen across histologic subtypes (Table 1). At the time of this interim analysis, the overall response rate (RR) and complete RR were 44% and 22% in FL, 83% and 17% in MCL, and 50% and 0% in PTCL, respectively.

follicular NHL [5] = settings: phase I dose-escalation study (Patnaik et al, ASH 2012); cited from earlier work
[6] = phase I dose-escalation study (Patnaik et al, ASH 2012); cited from earlier work
[7] = Phase II study, single agent, safety (adverse events); format: in vivo, human
Description: Patients received COMPOUND OF FORMULA I at a dose of 0.8 mg/kg as a 1 hour infusion on days 1, 8 and 15 of a 28-day cycle. Patients continued on therapy until disease progression or unacceptable toxicity.

DLBCL [8] = settings: patients with PD/patients; cited from earlier work
TMD-8 tumor cells = settings: 20 mg/kg once daily po; day 29
Description: Untreated female 5-6 week old CB17.Scid mice are inoculated with 10×10^6 TMD-8 tumor cells (suspended in 50% Matrigel and 50% Medium) subcutaneously into the flank. Animals are randomized to treatment groups when tumors reach a tumor area of 30-35 mm^2. Treatment is conducted as described in FIG. 5 legend. Tumor area and animal body are recorded three times per week.
Tumor growth was monitored by determination of the tumor area using caliper measurement 3 times weekly. QD, once daily; SD, standard deviation of the mean; TGI, relative tumor growth inhibition vs control (%, tumor area at the end of the study on day 29)

O=C1Nc2nc(-c3c(O)cccc3OCC3CC3)cc([C@@H]3CCCNC3)c2CO1 [BAY Compound B]
feedback activation of p-IKKα/β ([1]; both HBL-1 and OCI-Ly3 cells): Activation of p-IKKα/β
anti-proliferative activity profile across DLBCL cell lines (DLBCL cell lines): more active in ABC-DLBCL compared with GCB-DLBCL cell lines

COc1c(OCCCN2CCOCC2)ccc2c1N=C(NC(=O)c1cnc(N)nc1)N1CCN=C21 [COMPOUND A, 2-amino-N-[7-methoxy-8-(3-morpholin-4-ylpropoxy)-2,3-dihydroimidazo[1,2-c]quinazolin-5-yl]pyrimidine-5-carboxamide dihydrochloride]
PR (partial response) in follicular NHL (follicular NHL [2]): 6/6
tumor reduction (DLBCL [3]): 39%
half-life (Half-life in mice): ~1 h

COc1c(OCCCN2CCOCC2)ccc2c1N=C(NC(=O)c1cnc(N)nc1)N1CCN=C21 [COMPOUND OF FORMULA I, 2-amino-N-[7-methoxy-8-(3-morpholin-4-ylpropoxy)-2,3-dihydroimidazo[1,2-c]quinazolin-5-yl]pyrimidine-5-carboxamide]
Best response CR/CRu, number of patients ([4]; CLL (n = 9)): 0
Best response PD, number of patients ([4]; CLL (n = 9)): 1
Best response PR, number of patients ([4]; CLL (n = 9)): 4
Best response SD, number of patients ([4]; CLL (n = 9)): 4
Best response CR/CRu, number of patients ([4]; DLBCL (n = 17)): 0
Best response PD, number of patients ([4]; DLBCL (n = 17)): 8
Best response PR, number of patients ([4]; DLBCL (n = 17)): 2
Best response SD, number of patients ([4]; DLBCL (n = 17)): 7
Best response CR/CRu, number of patients ([4]; FL (n = 9)): 2
Best response PD, number of patients ([4]; FL (n = 9)): 0
Best response PR, number of patients ([4]; FL (n = 9)): 2
Best response SD, number of patients ([4]; FL (n = 9)): 5
complete RR ([4]; FL): 22%
overall response rate (RR) ([4]; FL, 0.8 mg/kg days 1, 8, 15 of 28-day cycle): 44%
Best response CR/CRu, number of patients ([4]; MCL (n = 6)): 1
Best response PD, number of patients ([4]; MCL (n = 6)): 1
Best response PR, number of patients ([4]; MCL (n = 6)): 4
Best response SD, number of patients ([4]; MCL (n = 6)): 0
complete RR ([4]; MCL): 17%
overall response rate (RR) ([4]; MCL): 83%
Best response CR/CRu, number of patients ([4]; PTCL (n = 4)): 0
Best response PD, number of patients ([4]; PTCL (n = 4)): 2
Best response PR, number of patients ([4]; PTCL (n = 4)): 2
Best response SD, number of patients ([4]; PTCL (n = 4)): 0
complete RR ([4]; PTCL): 0%
overall response rate (RR) ([4]; PTCL): 50%
Best response CR/CRu, number of patients ([4]; Transformed (n = 5)): 0
Best response PD, number of patients ([4]; Transformed (n = 5)): 2
Best response PR, number of patients ([4]; Transformed (n = 5)): 1
Best response SD, number of patients ([4]; Transformed (n = 5)): 2
clinical activity ([4]; single agent, 1st line, 2nd line, relapsed, refractory lymphoma): clinically active as a single agent
PR in follicular lymphoma (follicular NHL [5]): 6/6
maximum tolerated dose [6]: 0.8 mg/kg
deaths ([7]; 1 progressive disease, 1 acute respiratory insufficiency, 1 Cryptococcal meningitis, 1 sepsis after salvage chemotherapy): Four
toxicity profile ([7]; 1st line, 2nd line, relapsed, refractory lymphoma): acceptable toxicity profile
cases of interstitial pneumonitis ([7]; both resolved following corticosteroid administration): two
Hyperglycemia of any grade ([7]; in vivo): 47%
Withdrawal of study drug due to AEs ([7]; in vivo): 10 patients
colitis ([7]; in vivo): No case of colitis was reported
grade 4 hyperglycemia ([7]; in vivo): no grade 4 hyperglycemia was observed
grade 4 hypertension ([7]; in vivo): no grade 4 hypertension was reported
patients who required a dose reduction ([7]; in vivo): 4 patients
patients who required antihypertensive treatment ([7]; in vivo): Eight
patients who required insulin therapy ([7]; in vivo): Four
Diarrhea of any grade ([7]; of cases): 25%
Grade 3/4 AE diarrhea ([7]; of patients): 5%
Grade 3/4 AE fatigue ([7]; of patients): 5%
Grade 3/4 AE hyperglycemia ([7]; of patients): 13%
Grade 3/4 AE hypertension ([7]; of patients): 31%
Grade 3/4 AE neutropenia ([7]; of patients): 16%
Grade 3 adverse events (AE) ([7]; of patients): 49%
Hypertension of any grade ([7]; of patients): 46%
Withdrawal of study drug due to AEs ([7]; of patients): 16%
grade 4 AE (all neutropenia) ([7]; of patients): 15%

CC[C@H](Nc1ncnc2[nH]cnc12)c1nc2cccc(F)c2c(=O)n1-c1ccccc1 [GS-1101]
PD (progression of disease) in DLBCL patients (DLBCL [8]): 9/9
feedback activation of p-ERK ([1]; HBL-1 cells): Activation of p-ERK
decreased activity with respect to IC50 values (DLBCL cell lines; any mutations downstream of BCR): > 100 fold
anti-proliferative activity profile across DLBCL cell lines (DLBCL cell lines): active only in BCR-mutant cell lines without downstream mutations

C=CC(=O)N1CCC[C@@H](n2nc(-c3ccc(Oc4ccccc4)cc3)c3c(N)ncnc32)C1 [ibrutinib]
TGI (rel TA) (TMD-8 tumor cells): 70%
feedback activation of p-ERK ([1]; both HBL-1 and OCI-Ly3 cells): Activation of p-ERK
IC50 (DLBCL cell lines; BCR-mutant cell lines even in the presence of activating NFκB pathway): < 30 nM
IC50 (DLBCL cell lines; cell lines without BCR-activating mutations (or complete inactivity)): > 1000 nM
